# “Also recorded” adds a separate entry of the source.
# Columns and labels:
# [1] = tested on: C57Bl/6 mice; test: Liver toxicity screen (histology after two weeks of daily oral dosing); format: in vivo; settings: 2.5 mg/kg oral gavage once daily for 2 weeks
# Protocol: Screening for histological liver injury after chronic, therapeutic dose administration of compound was done as previously described. Briefly, C57Bl/6 mice were administered by oral gavage either […] (2.5 mg/kg) or solvent control (DMSO) in a 0.5% (w/v) carboxymethylcellulose suspension. Compound or vehicle administration was once daily for two weeks. Livers were then removed, fixed in 4% (v/v) paraformaldehyde, and paraffin-embedded for histology. To assess histological toxicity, 4 μm liver sections were stained with haematoxylin and eosin. Two independent observers blinded to the treatment groups performed microscopic assessment of the tissue for injury by using a semi-quantitative histological scoring system that considers architecture features (normal to extensive fibrosis), cellular features (normal to extensive edema and widespread necrosis), and degree of inflammatory infiltrate (normal to extensive infiltrate).
# [2] = Stability in human liver microsomes; format: in vitro ADME; settings: 5 μM compound; for metabolic stability in human liver microsomes compared with 069A (in words): Fig. 4D, 10 or 30 min incubation
# Protocol: Briefly, triplicate reaction mixtures contained 0.1 M potassium phosphate buffer (pH 7.4) and a final concentration of the following components: 1 – 1.6 mg/ml total microsomal protein, 5 μM test compound, 1.3 mM NADPH, 3.3 mM MgCl2, 0.4 U/ml glucose-6-phosphate dehydrogenase, and 3.3 mM glucose-6-phosphate in a total volume of 300 μl. Mixtures were incubated at 37°C for 10 or 30 minutes. […] HPLC was performed as described above with 0.1% (v/v) formic acid in water as reagent A and acetonitrile with 0.1% (v/v) formic acid in water as reagent B. Peak quantification was done based upon absorption measurements at 260 nm relative to a standard curve obtained by serial dilutions of compounds.
# [3] = biological target: T1, p38β (Homo sapiens, UniProt Q15759); test: Millipore/Upstate kinase profiling: p38β; format: biochemical; settings: 20 μM compound
# T1 construct: purchased Millipore (KinaseProfiler kinase screening service)
# T1 sequence (Q15759 whole entry): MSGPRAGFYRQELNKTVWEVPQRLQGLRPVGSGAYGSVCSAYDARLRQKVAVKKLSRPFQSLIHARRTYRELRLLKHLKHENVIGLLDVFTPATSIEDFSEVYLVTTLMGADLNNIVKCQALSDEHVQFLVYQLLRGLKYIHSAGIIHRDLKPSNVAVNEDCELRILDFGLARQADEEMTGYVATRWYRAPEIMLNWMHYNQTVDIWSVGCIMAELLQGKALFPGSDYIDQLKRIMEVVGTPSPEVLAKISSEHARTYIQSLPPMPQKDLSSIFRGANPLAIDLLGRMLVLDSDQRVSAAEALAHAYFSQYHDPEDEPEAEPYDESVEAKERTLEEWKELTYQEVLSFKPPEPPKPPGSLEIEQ
# Protocol: (§3) Enzyme activity assays were done in a final volume of 50 μl and each point was tested in duplicate. […] When compounds were tested for kinase inhibitory activity, 10X stock solutions of compounds were prepared in DMSO or water, and control samples contained the same final concentration of solvent as the samples containing compound. Data are expressed as percent of the maximal enzyme activity, where enzyme activity in the absence of compound is taken as 100%. IC50 values were calculated by a nonlinear regression data analysis using Microsoft Excel. Selectivity against pathway or structurally related protein kinases was done using purified kinases and standard in vitro assays described previously [69, 70], and included use of the Millipore (Billerica, MA) kinase screening service at 20 μM final concentration of 069A and 90 μM final concentration of ATP.
# [4] = biological target: T2, MKK7β (Homo sapiens, UniProt O14733); test: Millipore/Upstate kinase profiling: MKK7β; format: biochemical; settings: 20 μM compound; 90 μM ATP; activity without inhibitor = 100%
# T2 construct: purchased Millipore (KinaseProfiler kinase screening service)
# T2 sequence (O14733 1-419): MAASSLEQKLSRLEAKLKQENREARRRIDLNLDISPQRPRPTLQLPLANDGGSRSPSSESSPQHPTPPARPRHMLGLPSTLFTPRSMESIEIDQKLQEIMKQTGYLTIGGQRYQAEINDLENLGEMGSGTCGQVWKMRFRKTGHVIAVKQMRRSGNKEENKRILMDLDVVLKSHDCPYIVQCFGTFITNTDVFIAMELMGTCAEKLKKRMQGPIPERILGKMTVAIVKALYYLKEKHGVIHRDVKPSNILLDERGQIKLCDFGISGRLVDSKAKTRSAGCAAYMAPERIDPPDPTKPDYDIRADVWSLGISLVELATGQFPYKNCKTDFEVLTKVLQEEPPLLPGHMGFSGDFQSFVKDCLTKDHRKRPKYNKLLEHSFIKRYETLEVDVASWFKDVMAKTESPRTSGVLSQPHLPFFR
# [5] = tested on: C57Bl/6 mice infused ICV with human oligomeric Aβ1–42; test: AD mouse model (ICV infusion of human oligomeric Aβ1–42): Y-maze spontaneous alternation; format: in vivo; settings: 2.5 mg/kg oral once daily for 2 weeks from day 21; Y-maze days 50-60
# Protocol: (§1) The four-week intracerebroventricular (ICV) infusion of human oligomeric Aβ1-42 or Hepes/HDL vehicle into C57Bl/6 mice was done as previously described. Mice were administered by oral gavage either […] (2.5 mg/kg) or solvent control (DMSO) in a 0.5% (w/v) carboxymethylcellulose suspension. Compound administration began at day 21 after the start of Aβ infusion, and continued on a once daily administration schedule for 14 days. Beginning at day 50 after the start of Aβ infusion, the Y-maze test of spontaneous alternation was done once daily for 10 days to evaluate hippocampal-dependent spatial learning as described previously. At day 60, mice were anesthetized, perfused, and sacrificed as previously described. Hippocampal extract supernatants were prepared by dounce and sonication, followed by centrifugation as described previously. Levels of the proinflammatory cytokines IL-1β and TNFα in hippocampal supernatants were measured by ELISA (Biosource International) per the manufacturer's instructions. S100B and synaptophysin levels were measured by ELISA as previously described.
# [6] = tested on: C57Bl/6 mice infused ICV with human oligomeric Aβ1–42; test: AD mouse model (ICV infusion of human oligomeric Aβ1–42): hippocampal protein levels by ELISA; format: in vivo; settings: 2.5 mg/kg oral once daily for 2 weeks from day 21 after start of Aβ infusion; day 60
# Protocol: as §1
# [7] = biological target: T3, MKK4 (Mus musculus, UniProt P47809); test: Millipore/Upstate kinase profiling: MKK4; format: biochemical; settings: 20 μM compound; 90 μM ATP; activity without inhibitor = 100%
# T3 construct: purchased Millipore (KinaseProfiler kinase screening service)
# T3 sequence (P47809 1-397): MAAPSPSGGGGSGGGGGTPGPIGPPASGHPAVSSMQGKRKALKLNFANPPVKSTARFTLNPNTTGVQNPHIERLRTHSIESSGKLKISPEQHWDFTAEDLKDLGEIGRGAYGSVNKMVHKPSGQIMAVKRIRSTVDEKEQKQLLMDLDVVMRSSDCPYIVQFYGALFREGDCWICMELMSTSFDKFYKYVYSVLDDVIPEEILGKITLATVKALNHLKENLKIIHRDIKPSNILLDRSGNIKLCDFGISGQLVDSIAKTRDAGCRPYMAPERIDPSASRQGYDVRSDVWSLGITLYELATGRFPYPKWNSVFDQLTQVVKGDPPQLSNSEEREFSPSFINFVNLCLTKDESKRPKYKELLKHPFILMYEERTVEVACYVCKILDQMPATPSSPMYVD
# [8] = Aqueous solubility determination (log S); format: physicochemical; settings: thermodynamic from solid, Milli-Q water, 22°C
# Protocol: For aqueous solubility (log S) determination, compound 069A was weighed on a Sartorius AG (Goettingen, Germany) analytical balance, and Milli-Q water was added to create an oversaturated solution (suspension). Sample tubes were stirred for 24 hrs at ambient temperature (t = 22°C). 1 mL of the samples were centrifuged in a microfuge at 16,000 × g for 10 min, and 20 μL was subjected to reverse-phase HPLC analysis to determine the concentration of the compound (caq). The concentration of compound in the aqueous phase (caq) was determined by peak detection at 254 nm at the appropriate retention time relative to a standard curve obtained from serial dilutions of the compound. The log S was calculated as common logarithm (log10) of caq.
# [9] = Lipophilicity determination (log P), shake-flask; format: physicochemical; settings: 1-octanol/water shake-flask, 25°C
# Protocol: The partition coefficient was determined by the shake-flask method. The starting solution (0.3 mg/mL) of analyzed compound was prepared in presaturated 1-octanol (Sigma-Aldrich, St. Louis, MO). 1 mL of the octanol phase was agitated on a plate shaker with 10 mL of presaturated Milli-Q water for 2 hrs at 25°C. After partitioning, 1 mL of the aqueous phase was centrifuged in a microfuge for 10 min at 16,000 × g. 20 μL of the sample were analyzed with reversed-phase HPLC as described above to determine the concentration of the aqueous phase (caq). The log P is calculated according to the formula: log P = log10 [(0.3 – caq)/caq].
# [10] = Brain uptake: compound in brain homogenate after oral gavage; format: in vivo, C57Bl/6 mice; settings: mice, 2.5 mg/kg oral gavage; brain homogenate after perfusion
# Protocol: (§2) Analysis of oral bioavailability (concentration of compound in the blood as a function of time after oral administration) and brain uptake was done by a modification of that previously described. Briefly, 069A (2.5 mg/kg) was administered to C57Bl/6 mice by oral gavage in a 0.5% (w/v) carboxymethylcellulose suspension. At 5, 15, 30, 60, and 120 min after compound administration, blood was collected in heparinized tubes from anesthetized animals and plasma obtained by centrifugation. After perfusion, brains were harvested, homogenized in 0.1% formic acid and deproteinized with ice-cold acetonitrile. After centrifugation to remove precipitated protein, the brain homogenate supernatants were further diluted with 0.1% formic acid. The plasma samples were acidified by diluting with 0.1% formic acid (1:3, v:v). Solid phase extraction followed by HPLC analysis was used to quantify the amount of compound in the plasma and brain supernatants, with compound MW01-6-189WH used as an internal standard. Briefly, 30 mg cartridges (Oasis® HLB, Waters) were conditioned with 1 mL of acetonitrile and equilibrated with 1 mL of water. Acidified samples were loaded onto the cartridge followed by a 1 mL wash with 5% acetonitrile. Compound was eluted from the cartridge using 100% acetonitrile. The eluate was evaporated to dryness, reconstituted in 60% acetonitrile/0.1% formic acid/water and analyzed by HPLC. […]
# [11] = tested on: 44 other purified protein kinases; test: Millipore kinase screen, summary for the non-p38 kinases; format: biochemical; settings: 20 μM compound, Table 1
# Protocol: as §3
# [12] = Oral bioavailability: compound in plasma after oral gavage; format: in vivo, C57Bl/6 mice; settings: mice, 2.5 mg/kg oral gavage; earliest time point analyzed
# Protocol: as §2
# [13] = biological target: T4, p38α/SAPK2α (Homo sapiens, UniProt Q16539); test: In vitro p38α MAPK protein kinase assay (myelin basic protein phosphorylation, 32P-ATP); format: biochemical; settings: Fig. 3B; for p38α MAPK inhibitory activity (in words): increasing concentrations of compound; for fold less active than 069A as p38α MAPK inhibitor: relative to 069A
# T4 construct: purchased Millipore (Billerica, MA)
# T4 sequence (Q16539 whole entry): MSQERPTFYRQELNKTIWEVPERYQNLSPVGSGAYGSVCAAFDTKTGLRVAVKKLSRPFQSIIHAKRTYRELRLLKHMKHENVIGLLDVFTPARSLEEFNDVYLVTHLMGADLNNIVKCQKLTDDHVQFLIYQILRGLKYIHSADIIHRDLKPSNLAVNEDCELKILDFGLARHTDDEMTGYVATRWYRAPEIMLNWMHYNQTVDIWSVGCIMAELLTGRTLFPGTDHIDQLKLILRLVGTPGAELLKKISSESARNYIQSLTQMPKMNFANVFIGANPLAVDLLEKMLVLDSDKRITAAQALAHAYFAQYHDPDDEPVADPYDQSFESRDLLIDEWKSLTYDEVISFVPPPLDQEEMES
# Protocol: Concentration-dependent inhibition of protein kinase activity was done essentially as previously described. Active p38α/SAPK2α enzyme was obtained from Millipore (Billerica, MA), and bovine myelin basic protein substrate was obtained from Sigma-Aldrich (St. Louis, MO). Enzyme activity assays were done in a final volume of 50 μl and each point was tested in duplicate. Assays were done by incubation with 0.33 mg/ml (18 μM) myelin basic protein, 100 μM ATP and γ-[^32P]ATP (specific activity > 300 cpm/pmol) in assay buffer (50 mM HEPES, pH 7.5, 5 mM MgCl2, 150 mM KCl, 15 mM NaCl, 1 mM DTT). Reactions were initiated by addition of the active p38α kinase at a final concentration of 2 μg/ml, and incubated for 10 min at 30°C. […] When compounds were tested for kinase inhibitory activity, 10X stock solutions of compounds were prepared in DMSO or water, and control samples contained the same final concentration of solvent as the samples containing compound. Data are expressed as percent of the maximal enzyme activity, where enzyme activity in the absence of compound is taken as 100%. IC50 values were calculated by a nonlinear regression data analysis using Microsoft Excel. Selectivity against pathway or structurally related protein kinases was done using purified kinases and standard in vitro assays described previously, and included use of the Millipore (Billerica, MA) kinase screening service at 20 μM final concentration of 069A and 90 μM final concentration of ATP.
# [14] = tested on: p38α MAPK; settings: background statement, no reference given; cited from earlier work
# [15] = cited from earlier work
structure (smiles),measurement,setting,value
c1ccc(-c2nnc(N3CCN(c4ncccn4)CC3)cc2-c2ccncc2)cc1 [MW01-2-069A-SRM],adverse clinical effects during treatment,[1],no adverse clinical effects
same,histological liver injury,"[1]; compared with vehicle, 2.5 mg/kg",did not induce any histological indices of liver tissue injury; also recorded: no significant liver toxicity
same,compound remaining after incubation with human liver microsomes,"[2]; 10 min incubation, 37°C",~ 70%
same,% kinase activity (p38β),"[3]; 90 μM ATP, activity without inhibitor = 100%",30%
same,inhibition of p38β (in words),[3]; Millipore screen,partial inhibition
same,% kinase activity (MKK7β),[4],103%
same,Aβ-induced Y-maze behavioral deficit,[5],ameliorates the Y-maze behavioral deficit
same,Aβ-induced loss of synaptophysin in hippocampal extracts,[6],attenuates this loss of synaptophysin
same,Aβ-induced overproduction of IL-1β in hippocampal extracts,[6],significantly reduced
same,Aβ-induced overproduction of S100B in hippocampal extracts,[6],significantly reduced
same,Aβ-induced overproduction of TNFα in hippocampal extracts,[6],significantly reduced
same,% kinase activity (MKK4),[7],117%
same,solubility at 24 h,[8],9.54 µg/mL
same,logP at 2 h,[9],3.18
same,time at which compound appears in brain after oral administration,[10],≤ 5 min
same,time of peak brain concentration after oral administration,[10],5 to 15 min
same,inhibition of 44 other purified protein kinases (in words),[11],little or no inhibition
same,time at which compound is detected in plasma after oral administration,[12],≤ 5 min
"c1ccc(-c2ccc(N3CCN(c4ncccn4)CC3)nn2)cc1 [MW01-3-183WH, 3-phenyl-6-(4-(pyrimidin-2-yl)piperazin-1-yl)pyridazine]",p38α MAPK inhibitory activity (in words),[13],lacks inhibitory activity
same,fold less active than 069A as p38α MAPK inhibitor,[13],> 100 fold
"c1ccc(-c2nnc(N3CCN(c4ncccn4)CC3)cc2-c2cccnc2)cc1 [MW01-4-119SRM, 3-phenyl-4-(pyridin-3-yl)-6-(4-(pyrimidin-2-yl)piperazin-1-yl)pyridazine]",p38α MAPK inhibitory activity (in words),[13],major loss of activity
same,fold less active than 069A as p38α MAPK inhibitor,[13],> 100 fold
c1ccc(-c2cc(-c3ccncc3)c(N3CCN(c4ncccn4)CC3)nn2)cc1 [MW01-6-189WH],p38α MAPK inhibitory activity (in words),[13],does not generate MAPK inhibitory activity
same,fold less active than 069A as p38α MAPK inhibitor,[13],> 100 fold
Cc1cc(-c2ccccc2)nnc1NCCN1CCOCC1 [Minaprine],metabolic stability in human liver microsomes compared with 069A (in words),[2],"it is more stable than the structurally related, clinical CNS drug Minaprine"
Cc1cc(-c2ccccc2)nnc1N1CCN(c2ncccn2)CC1 [Minozac],metabolic stability in human liver microsomes compared with 069A (in words),[2],069A is not as metabolically stable as Minozac
same,p38α MAPK inhibition (in words),[14],not an inhibitor
same,blood-brain barrier penetrance,[15],good blood-brain barrier penetrance

# Reference: PMC2014744, “A novel p38α MAPK inhibitor suppresses brain proinflammatory cytokine up-regulation and attenuates synaptic dysfunction and behavioral deficits in an Alzheimer's disease mouse model” (Journal of Neuroinflammation, 2007)
